Like-named read-outs stand apart in the source and are kept apart here.
Columns and labels:
[1] = target: T1, hCB2 receptor (Homo sapiens, UniProt P34972); assay: CB2 receptor binding assay ([3H]-CP-55,940 displacement, HEK cell membranes); parameters: expressed in transfected cells; host or cells: HEK cells; conditions: [3H]-CP-55,940 displacement; means ± SD of 3 independent experiments in duplicate; read-out: Ki CB2
Description: (§1) To assess the compound selectivity between CB1 and CB2 receptors, binding constants were determined through a radioligand displacement assay by testing concentration–response curves for compounds 5, 6, 16, 19, and 22. As shown in Figure 4 and summarized in Table 4, three of the tested compounds (5, 19, and 22) presented moderate binding affinity in a low micromolar range to both CB1 and CB2 receptors.
(§2) CB1 and CB2 receptor binding assays were performed exactly as previously described. […] Displacement curves were performed by incubating [^3H]-CP-55 940 (90 min, 30 °C) with increasing concentrations of compounds (10 nM−10 μM). Ki values were calculated by applying the Cheng−Prusoff equation to the IC50 values (obtained by GraphPad, Prism Software 9.5) for the displacement of the bound radioligand by compounds.

[2] = target: T1, hCB2 receptor; assay: Single-dose radioligand displacement assay ([3H]WIN55212-2); assay type: binding; parameters: host or cells: CHO cells; conditions: membranes from recombinant CHO cells expressing human CB2, duplicate
Description: To assess ligand binding to CB2 receptors, radioligand displacement assay at a single dose (10 μM) was performed in membranes obtained from recombinant CHO cells expressing human CB2 receptors (Eurofins Cerep SA, France). Out of 26 compounds, more than 50% of the molecules presented >50% displacement, while 20% of the compounds (5, 6, 16, 19, 22) presented >80% displacement of radioligand binding at a 10 μM dose. Compounds 5, 6, 16, 19, and 22 were further tested for CB2 receptor activation (agonist activity, see below) and CB2/CB1 selectivity.
All membrane preparations for these studies were generated at Cerep Inc. according to standard protocols. Duplicate determinations were performed for each test compound. Compounds were dissolved in DMSO to generate a stock solution. Radioligand binding methods were adapted from Munro et al..

[3] = target: T1, hCB2 receptor; assay: cAMP accumulation assay (forskolin-stimulated, CHO cells expressing hCB2); assay type: cell-based
Description: Compounds were further characterized through in vitro functional assays by measuring the variation in forskolin-induced cAMP accumulation (Eurofins Cerep services). The tested compounds diminished the accumulation of cyclic AMP, indicating activity as agonists (Figure 3).
In vitro pharmacology assay for human CB2 agonist effect in CHO cells was performed by Eurofins Cerep (Celle-Lévescault, France). Five compounds were tested at several concentrations for EC50 determination. […] CHO cells stably expressing hCB2 receptor were used to determine agonist effect of compounds, based on the measurement of cAMP level. Assay protocol is adapted from Felder et al..

[4] = test system: MCF-7 cells; assay: Neutral red uptake assay, MCF-7; assay type: cell-based; conditions: Homo sapiens, MCF7, 72 h incubation, triplicate, read-out: IC50 Viability
Description: (§3) Compound 6 was tested through a neutral red uptake assay, and cell viability was measured. Neutral red consists of a cationic dye that accumulates in lysosomes. Uptake of neutral red depends on a viable cell’s capacity to maintain acidic pH in the interior of lysosomes.
(§4) MCF-7 and HEK-293 cell lines were maintained at 37 °C in a humidified atmosphere containing 5% CO2. MCF-7 was grown in Roswell Park Memorial Institute (RPMI) 1640 and HEK-293 was grown in Dulbecco’s modified Eagle medium and Ham’s F-12 medium (DMEM/F12). All media was supplemented with 10% fetal bovine serum, penicillin (100 U/mL), streptomycin ([…]), and non-essential amino acids MEM 1×.
(§5) Cells were seeded in 100 μL of media at a density of 10^4 cells/well in 96-well microtiter plates. Solutions of compounds were previously prepared in DMSO, and 1 μL of the corresponding solution was added to each well. The final volume of each well was adjusted to 200 μL. After 72 h of incubation, culture media were removed, and 100 μL of 10 μg/mL neutral red solution prepared in culture media was added to each well and incubated for 2 h at 37 °C in a humidified atmosphere containing 5% CO2. […] The plate was placed for 15 min in a shaker, and fluorescence was measured using Cytation 5 apparatus (Biotek, Winooski, VT, USA) at 530/645 nm excitation/emission wavelengths.

[5] = test system: HEK-293 cells; assay: Neutral red uptake assay, HEK-293; assay type: cell-based; conditions: Homo sapiens, HEK293
Description: as §3, §4, §5

[6] = target: T2, human recombinant CB1R (Homo sapiens, UniProt P21554); assay: CB1 receptor binding assay ([3H]-CP-55,940 displacement, HEK cell membranes); conditions: [3H]-CP-55,940 displacement; means ± SD of 3 independent experiments in duplicate; read-out: Ki CB1
T2 construct: expressed in transfected cells; host or cells: HEK cells
T2 sequence (P21554 whole entry): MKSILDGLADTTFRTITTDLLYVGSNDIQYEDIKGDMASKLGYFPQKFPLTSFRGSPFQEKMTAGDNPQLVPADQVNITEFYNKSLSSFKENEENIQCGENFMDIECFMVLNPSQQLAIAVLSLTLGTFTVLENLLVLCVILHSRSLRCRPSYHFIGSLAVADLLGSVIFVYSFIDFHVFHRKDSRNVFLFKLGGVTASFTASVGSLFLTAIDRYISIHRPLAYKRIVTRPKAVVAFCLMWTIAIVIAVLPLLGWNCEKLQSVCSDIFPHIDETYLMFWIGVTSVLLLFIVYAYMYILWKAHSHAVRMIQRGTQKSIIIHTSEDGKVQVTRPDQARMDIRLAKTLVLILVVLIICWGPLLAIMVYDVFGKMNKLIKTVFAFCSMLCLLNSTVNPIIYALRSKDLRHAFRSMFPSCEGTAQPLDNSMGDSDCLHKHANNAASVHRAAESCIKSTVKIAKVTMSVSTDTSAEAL
Description: as §1, §2

T1 sequence (P34972 whole entry): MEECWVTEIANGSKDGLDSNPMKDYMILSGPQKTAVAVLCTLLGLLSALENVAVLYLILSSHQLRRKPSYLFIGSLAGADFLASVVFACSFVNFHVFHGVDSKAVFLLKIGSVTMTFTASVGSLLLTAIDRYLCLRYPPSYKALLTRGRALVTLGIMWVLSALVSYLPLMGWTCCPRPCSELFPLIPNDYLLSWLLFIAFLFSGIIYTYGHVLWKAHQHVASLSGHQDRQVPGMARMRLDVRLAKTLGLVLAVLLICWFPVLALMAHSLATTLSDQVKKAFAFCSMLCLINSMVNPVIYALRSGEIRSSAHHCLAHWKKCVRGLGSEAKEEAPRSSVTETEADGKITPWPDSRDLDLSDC

CCn1c(OC2CC(C)CCC2C(C)C)nc2ccccc21 (stereo not drawn) [Compound 6, 1-ethyl-2-((2-isopropyl-5-methylcyclohexyl)oxy)-1H-benzo[d]imidazole]
Ki [1]: 0.44 ± 0.1 µM | Inhibition (%) of [3H]WIN55212-2 specific binding ([2]; 10 µM single dose): 89% | inhibition at 10 µM ([2]; read-out: Inhibition (%) of [3H]WIN55212-2 specific binding, 10 µM single dose): > 80% | EC50 ([3]; recombinant CHO cells expressing hCB2, duplicate, read-out: EC50, inhibition of forskolin-stimulated cAMP accumulation): 0.00336 µM | agonist activity at CB2 (cAMP accumulation) ([3]; recombinant cells expressing CB2 receptors): agonist activity was confirmed | IC50 [4]: 38 µM | IC50 ([5]; HEK-293, 72 h incubation, triplicate, read-out: IC50 Viability): 30 µM | IC50 ([5]; range over HEK-293 and MCF-7 cells, read-out: IC50 of toxicity): 30 to 38 µM | Ki [6]: > 10 µM

Source: article PMC10341893, “Motifs in Natural Products as Useful Scaffolds to Obtain Novel Benzo[d]imidazole-Based Cannabinoid Type 2 (CB2) Receptor Agonists” (International Journal of Molecular Sciences, 2023)
